Laboratory results taken from patent US10375956B2, “Herbicidally active 2-(substituted-phenyl)-cyclopentane-1,3-dione compounds and derivatives thereof” (Syngenta Limited, priority 2013, dated 2019).

Experiments:
Format in all cases: in vivo
Setaria faberi (SETFA) [1] = assay: Test 2 glasshouse assay (IF50 formulation, X-77), pre-emergence herbicidal activity; details: 480 h, 20DAA, read-out: Percentage phytotoxicity SETFA
Description: (§1) Seeds of a variety of monocotyledonous and dicotyledonous test plants are sown in standard soil in pots. The plants are cultivated for one day (for pre-emergence) or for about 12 days (for post-emergence) under controlled conditions in a glasshouse (warm climate species at 24/18° C., cool climate species at 20/16° C., both at day/night; 16 hours light; 65% humidity).
(§2) An “instant formulation”, known as the “IF50”, containing 50 g/liter (i.e. 5% w/v) of the “technical” (i.e. unformulated) active ingredient is prepared by dissolving the active ingredient in a mixture of organic solvents and emulsifier, details of which are provided in the Table below. This IF50 is then mixed with a small, variable amount of acetone to aid dissolution, before addition of a 0.2% v/v aqueous solution of the adjuvant X-77 (which is a mixture of alkyl aryl polyoxyethylene glycols and free fatty acids in isopropanol, CAS Registry number 11097-66-8), as the aqueous diluent, to form an aqueous spray solution which contains a predetermined concentration of the active ingredient (which varies depending on the application rate of the active ingredient to the plants) and 0.2% v/v of the adjuvant X-77. This aqueous spray solution is then sprayed onto the plants, after one day's cultivation (for pre-emergence), or after about 12 days' cultivation (range=10-13 days) (for post-emergence).
(§3) The test plants are then grown on, in a glasshouse (greenhouse) under controlled conditions (warm climate species at 24/18° C., cool climate species at 20/16° C., both at day/night; 16 hours light; 65% humidity) and are watered twice daily. 15 days after application of the test herbicide (15DAA) (for post-emergence), and 20 days after application of the test herbicide (20DAA) (for pre-emergence), the test plants are evaluated visually, and an assessed percentage phytotoxicity score is given for each herbicidal application on each plant species (with 100%=total damage to plant; 0%=no damage to plant).
(§4) Warm climate (“warm season”) grassy monocotyledonous weeds: Setaria faberi (SETFA), Panicum miliaceum (PANMI), Sorghum vulgare Pers. (SORVU) (or Sorghum bicolor (L) Moench ssp. Bicolor), Digitaria sanguinalis (DIGSA), Echinochloa crus-galli (ECHCG), and Brachiaria plantaginea (BRAPL).

[2] = test system: Digitaria sanguinalis (DIGSA); assay: as above; details: 480 h, 20DAA, read-out: Percentage phytotoxicity DIGSA
Description: as §1, §2, §3, §4

[3] = test system: Panicum miliaceum (PANMI); assay: as above; details: 480 h, 20DAA, read-out: Percentage phytotoxicity PANMI
Description: as §1, §2, §3, §4

[4] = test system: Echinochloa crus-galli (ECHCG); assay: as above; details: 480 h, 20DAA, read-out: Percentage phytotoxicity ECHCG
Description: as §1, §2, §3, §4

[5] = test system: Sorghum vulgare Pers. (SORVU); assay: as above; details: Sorghum bicolor, 480 h, 20DAA, read-out: Percentage phytotoxicity SORVU
Description: as §1, §2, §3, §4

[6] = test system: Brachiaria plantaginea (BRAPL); assay: as above; details: Urochloa plantaginea, 480 h, 20DAA, read-out: Percentage phytotoxicity BRAPL
Description: as §1, §2, §3, §4

[7] = test system: Zea mays (ZEAMX, corn/maize); assay: Test 1 glasshouse assay, pre-emergence herbicidal activity; details: 312 h, visual evaluation after 13 days, read-out: Percentage phytotoxicity ZEAMX
How it was run: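 Pre-emergence spray 1 d post-sowing; acetone/water 50:50, 0.5% Tween 20 vehicle. Glasshouse 24/16° C, 14 h light, 65% RH. Visual % phytotoxicity at 13 d, 100% = total damage, 0% = none.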

Lolium perenne (LOLPE) = assay: Test 2 glasshouse assay (IF50 formulation, X-77), pre-emergence herbicidal activity; details: 480 h, 20DAA, read-out: Percentage phytotoxicity LOLPE
Description: as §1, §2, §3
Cool climate (“cool season”) grassy monocotyledonous weeds: Alopecurus myosuroides (ALOMY), Avena fatua (AVEFA), Lolium perenne (LOLPE).

Setaria faberi (SETFA) [8] = assay: Test 2 glasshouse assay (IF50 formulation, X-77), post-emergence herbicidal activity; details: 360 h, 15 DAA, visual score, read-out: Post-emergence herbicidal activity (percentage phytotoxicity) SETFA; for pest or weed control at 30 g/ha: application rate 30 g/ha; for pest or weed control at 125 g/ha: application rate 125 g/ha
Description: as §1, §2, §3, §4

[9] = test system: Digitaria sanguinalis (DIGSA); assay: as above; details: 360 h, 15 DAA, visual score, read-out: Post-emergence herbicidal activity (percentage phytotoxicity) DIGSA; for pest or weed control at 30 g/ha: application rate 30 g/ha; for pest or weed control at 125 g/ha: application rate 125 g/ha
Description: as §1, §2, §3, §4

[10] = test system: Panicum miliaceum (PANMI); assay: as above; details: 360 h, 15 DAA, visual score, read-out: Post-emergence herbicidal activity (percentage phytotoxicity) PANMI; for pest or weed control at 30 g/ha: application rate 30 g/ha; for pest or weed control at 125 g/ha: application rate 125 g/ha
Description: as §1, §2, §3, §4

[11] = test system: Echinochloa crus-galli (ECHCG); assay: as above; details: 360 h, 15 DAA, visual score, read-out: Post-emergence herbicidal activity (percentage phytotoxicity) ECHCG; for pest or weed control at 30 g/ha: application rate 30 g/ha; for pest or weed control at 125 g/ha: application rate 125 g/ha
Description: as §1, §2, §3, §4

[12] = test system: Sorghum vulgare Pers. (SORVU); assay: as above; details: Sorghum bicolor, 360 h, 15 DAA, visual score, read-out: Post-emergence herbicidal activity (percentage phytotoxicity) SORVU; for pest or weed control at 30 g/ha: application rate 30 g/ha; for pest or weed control at 125 g/ha: application rate 125 g/ha
Description: as §1, §2, §3, §4

[13] = test system: Brachiaria plantaginea (BRAPL); assay: as above; details: Urochloa plantaginea, 360 h, 15 DAA, visual score, read-out: Post-emergence herbicidal activity (percentage phytotoxicity) BRAPL; for pest or weed control at 30 g/ha: application rate 30 g/ha; for pest or weed control at 125 g/ha: application rate 125 g/ha
Description: as §1, §2, §3, §4

| SMILES | pest or weed control at 250 g/ha (Setaria faberi (SETFA) [1]) | pest or weed control at 250 g/ha [2] | pest or weed control at 250 g/ha [3] | pest or weed control at 250 g/ha [4] | pest or weed control at 250 g/ha [5] | pest or weed control at 250 g/ha [6] | pest or weed control at 250 g/ha (Lolium perenne (LOLPE)) | pest or weed control at 30 g/ha (Setaria faberi (SETFA) [8]) | pest or weed control at 125 g/ha (Setaria faberi (SETFA) [8]) | pest or weed control at 30 g/ha [9] | pest or weed control at 125 g/ha [9] | pest or weed control at 30 g/ha [10] | pest or weed control at 125 g/ha [10] | pest or weed control at 30 g/ha [11] | pest or weed control at 125 g/ha [11] | pest or weed control at 30 g/ha [12] | pest or weed control at 125 g/ha [12] | pest or weed control at 30 g/ha [13] | pest or weed control at 125 g/ha [13] | pest or weed control at 125 g/ha (Setaria faberi (SETFA) [1]) | further results |
| --- | --- | --- | --- | --- | --- | --- | --- | --- | --- | --- | --- | --- | --- | --- | --- | --- | --- | --- | --- | --- | --- |
| C#CCC1CC(=O)C(c2c(Cl)cc(-c3ccc(F)c(F)c3)cc2OC)C1=O (stereo not drawn) [Compound A13] | 100% | 100% | 100% | 100% | 100% | 100% | 100% | 100% | 100% | 100% | 100% | 100% | 100% | 100% | 100% | 100% | 100% | 90% | 100% | – | pest or weed control at 250 g/ha [7]: 100% |
| C#CCC1C(=O)C(c2c(C)cc(C)cc2C)C(=O)C1CC#C (stereo not drawn) [Compound A42] | – | – | – | – | – | – | – | – | 90% | – | 90% | – | 100% | – | 100% | – | 80% | – | 100% | – | pest or weed control at 500 g/ha (Setaria faberi (SETFA) [1]; 500 g/ha): 80%; pest or weed control at 500 g/ha ([2]; 500 g/ha): 70%; pest or weed control at 500 g/ha ([3]; 500 g/ha): 100%; pest or weed control at 500 g/ha ([4]; 500 g/ha): 100%; pest or weed control at 500 g/ha ([5]; 500 g/ha): 80%; pest or weed control at 500 g/ha ([6]; 500 g/ha): 100%; pest or weed control at 500 g/ha (Lolium perenne (LOLPE); 500 g/ha): 100%; pest or weed control at 500 g/ha (Setaria faberi (SETFA) [8]; application rate 500 g/ha): 100%; pest or weed control at 500 g/ha ([9]; application rate 500 g/ha): 100%; pest or weed control at 500 g/ha ([10]; application rate 500 g/ha): 100%; pest or weed control at 500 g/ha ([11]; application rate 500 g/ha): 100%; pest or weed control at 500 g/ha ([12]; application rate 500 g/ha): 100%; pest or weed control at 500 g/ha ([13]; application rate 500 g/ha): 100% |
| C#CCC1CC(OC(C)=O)=C(c2c(C)cc(-c3ccc(F)cc3)cc2C)C1=O (stereo not drawn) [Compound A45] | – | – | – | – | – | – | – | 90% | 100% | 100% | 100% | 100% | 100% | 100% | 100% | 70% | 100% | 90% | 100% | 90% | pest or weed control at 125 g/ha [2]: 90%; pest or weed control at 125 g/ha [3]: 100%; pest or weed control at 125 g/ha [4]: 80%; pest or weed control at 125 g/ha [5]: 80%; pest or weed control at 125 g/ha [6]: 90%; pest or weed control at 125 g/ha (Lolium perenne (LOLPE)): 90% |
| C#CCC1CC(=O)C(c2c(C)cc(-c3ccc(F)cc3)cc2C)C1=O (stereo not drawn) [Compound A1, 2-[4-(4-fluorophenyl)-2,6-dimethyl-phenyl]-4-prop-2-ynylcyclopentane-1,3-dione] | – | – | – | – | – | – | – | 90% | 100% | 100% | 100% | 80% | 100% | 100% | 100% | 90% | 100% | 100% | 100% | 100% | pest or weed control at 125 g/ha [2]: 100%; pest or weed control at 125 g/ha [3]: 100%; pest or weed control at 125 g/ha [4]: 90%; pest or weed control at 125 g/ha [5]: 90%; pest or weed control at 125 g/ha [6]: 90%; pest or weed control at 125 g/ha (Lolium perenne (LOLPE)): 80% |
| C#CCC1CC(=O)C(c2c(CC)cc(C)cc2CC)C1=O (stereo not drawn) [Compound A25, 2-(2,6-diethyl-4-methyl-phenyl)-4-(prop-2-ynyl)-cyclopentane-1,3-dione] | 80% | 100% | 90% | 100% | 90% | 100% | 90% | 90% | 100% | 100% | 100% | 100% | 100% | 100% | 100% | 100% | 100% | 100% | 100% | – | – |
